From publication PMC12970513, “Unsaturated Phosphorus Electrophiles to Probe Protein Tyrosine Phosphatases” (Angewandte Chemie (International Ed. in English), 2026)
*1 amine or outer side, *2 acyl side, *3 side chain or, on linkers, in order; H or OH if unused. Where a SMILES comes first, the peptide text is derived from it. [ ]: non-standard residue; d: D form. The star is where a group is joined. X1 = C#CP(=O)(O)Oc1ccc(C[C@H](N[*:1])C(=O)[*:2])cc1; X2 = C#CP(=O)(O)Nc1ccc(C[C@H](N[*:1])C(=O)[*:2])cc1; Biotin = O=C1N[C@H]2[C@H](CS[C@H]2CCCCC(=O)*)N1

What was measured:
[1] = Stability of bio-PN and bio-PO in HEK293T cell lysate by 31P NMR; type: in vitro ADME, human; conditions: HEK293T lysate (1 mg/mL), 1 mM peptide, room temperature
Protocol: Next, we assessed the stability of the phosphonamidic and phosphonic acid in aqueous buffers at pH 2, pH 3.5, pH 7.4, pH 8.5, and pH 11. Therefore, SM‐PN and SM‐PO were added in the corresponding buffers and monitored for 48 h at room temperature via ^31P‐NMR with triphenylphosphinoxide (TPPO) as an internal standard (Figure S2). […] Furthermore, we evaluated the stability of the peptide probes bio‐PN and bio‐PO in human lysate for subsequent experiments. These peptides were added in HEK293T cell lysate, and changes in stability were recorded for 18 h via ^31P‐NMR, in which inorganic phosphate served as an internal standard. […] Nonetheless, both peptides display sufficient stability for follow‐up studies.
A solution of 480 µL of HEK293T cell lysate (1 mg/mL) was supplemented with 60 µL of D2O. To this, 60 µL of bio-PN or bio-PO (10 mM stock in DMSO, final concentration 1 mM) were added right before the start of the measurement. The mixtures were transferred to NMR tubes and one-dimensional ^31P-NMR spectra were recorded for each sample at room temperature, in intervals of 2.5 h over the course of 18 h on a Bruker AV-III 600 spectrometer. For analysis, the spectra were Fourier-transformed, baseline corrected and the intensity of the ^31P-NMR signal was obtained by integration.

[2] = Lysate labeling by fluorescence gel scanning, HEK293T; parameters: species or system human; conditions: HEK293T lysate 2 mg/mL, 50 mM sodium succinate pH 6.0, 150 mM NaCl, 1 mM EDTA, 1 mM DTT, 1 h, R.T.
Protocol: Having identified suitable conditions, we aimed to compare our target‐specific peptide PO‐probe with a broad reactivity PTP probe in order to visualize the different reactivity patterns in human lysate. […] Using the previously reported buffer conditions, HEK293T cell lysate (50 mM sodium succinate, pH 6.0, 150 mM NaCl, 1 mM EDTA, 1 mM DTT) was incubated for 1 h with TMR‐BBP (100 µM).
For fluorescence gel scanning of TMR labeled probes samples resolved by SDS-PAGE and first visualized at a Bio-Rad imaging system equipped with a 532 nm laser for excitation. Afterwards, wherever applicable gels were stained with Coomassie brilliant blue.
For the comparison of the labeling pattern between TMR-PO and a general phosphatase probe (TMR-BBP) freshly lysed HEK293T cell lysate was adjusted to 2 mg/mL. […] For labeling with TMR-BBP cells were lysed in 50 mM sodium succinate buffer pH 6.0, 150 mM NaCl, 1 mM EDTA, and 1 mM DTT as previously reported.^[3] […] The reactions were incubated for 1 hour at room temperature and subsequently analyzed by fluorescence gel scanning.
A volume of 49 µL of each lysate was mixed with 1 µL of a 5 mM TMR-PO stock solution in DMSO and incubated for 1 hour at room temperature. Samples were resolved by SDS-PAGE and analyzed by fluorescence gel scanning.

C#CP(=O)(O)Nc1ccc(C[C@H](NC(=O)[C@H](CCC(=O)O)NC(=O)[C@H](CC(=O)O)NC(=O)[C@H](C)NC(=O)[C@H](CC(=O)O)NC(=O)CCCC[C@@H]2SC[C@@H]3NC(=O)N[C@@H]32)C(=O)N[C@@H](CC(C)C)C(=O)N[C@H](C(=O)N2CCC[C@H]2C(=O)N[C@@H](CCC(N)=O)C(=O)N[C@@H](CCC(N)=O)C(=O)NCC(N)=O)[C@@H](C)CC)cc1 [bio-PN] (Biotin-DADE[X2]LIPQQG-NH2)
remaining at 18 h, 1 mM ([1]; human, HEK293T cell lysate, inorganic phosphate internal standard, read-out: remaining intact in HEK293T cell lysate): 80% | metabolised at 18 h, 1 mM ([1]; human, HEK293T cell lysate, read-out: decay in HEK293T cell lysate): 20%

C#CP(=O)(O)Oc1ccc(C[C@H](NC(=O)[C@H](CCC(=O)O)NC(=O)[C@H](CC(=O)O)NC(=O)[C@H](C)NC(=O)[C@H](CC(=O)O)NC(=O)CCCC[C@@H]2SC[C@@H]3NC(=O)N[C@@H]32)C(=O)N[C@@H](CC(C)C)C(=O)N[C@H](C(=O)N2CCC[C@H]2C(=O)N[C@@H](CCC(N)=O)C(=O)N[C@@H](CCC(N)=O)C(=O)NCC(N)=O)[C@@H](C)CC)cc1 [bio-PO] (Biotin-DADE[X1]LIPQQG-NH2)
decay in HEK293T cell lysate ([1]; 18 h): remains intact | remaining intact in HEK293T cell lysate ([1]; 18 h, inorganic phosphate internal standard): stayed unaltered

α-bromo(4-((N-5/6-TAMRA-aminomethyl)phenyl)methyl)phosphonic acid [TMR-BBP]
labeling pattern in HEK293T lysate (TMR-BBP) [2]: labeled many proteins across the whole proteome
